Earlier results in patent publication US10543172B2, “Econazole composition and methods of treatment therewith” (PARAGON NORDIC AB, priority 2010, dated 2020).

Tested on: dermatophytes and yeasts
Details: Liao et al., Yao Xue Xue Bao 28(1):22-7 (1993)

Clc1ccc(CO[C@@H](Cn2ccnc2)c2ccc(Cl)cc2Cl)cc1 [(R)-(−)-econazole]
antifungal activity of stereoisomer: greater antifungal activity
